US20240174618A1, “SUBSTITUTED (2-HETEROARYLOXYPHENYL)SULFONATES, SALTS THEREOF AND THEIR USE AS HERBICIDAL AGENTS” (Bayer Aktiengesellschaft, priority 2021, published 2024)

Experiments:
Type in all cases: in vivo
[1] = system: Echinochloa crus-galli (ECHCG); assay: E. Herbicidal post-emergence efficacy, ECHCG
Procedure: Seeds of monocotyledonous and dicotyledonous weeds and crop plants were placed in sandy loam in plastic or organic planting pots, covered with soil and cultivated in a greenhouse under controlled growth conditions. 2 to 3 weeks after sowing, the test plants were treated at the one-leaf stage. The compounds of the invention, formulated in the form of wettable powders (WP) or as emulsion concentrates (EC), were then sprayed onto the green parts of the plants as aqueous suspension or emulsion with addition of 0.5% additive at a water application rate of 600 l/ha (converted). After the test plants had been kept in the greenhouse under optimum growth conditions for about 3 weeks, the activity of the preparations was rated visually in comparison to untreated controls.
For example, • 100% efficacy=plants have died, • 0% action=like untreated control plants.
Tables E1a to E12b below show the effects of selected compounds of the general formula (I) according to table 1 on various harmful plants at an application rate corresponding to 320 g/ha or less, which were obtained by the experimental procedure mentioned above.

[2] = system: Kochia scoparia (KCHSC); assay: B. Herbicidal post-emergence efficacy, KCHSC; conditions: for Post-emergence efficacy against KCHSC in %: rated visually after about 3 weeks; for Post-emergence efficacy against KCHSC: 1280 g/ha
Outline: (§1)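 Weeds grown in sandy loam in greenhouse pots, sprayed at one-leaf stage (2–3 weeks after sowing) with WP or EC formulations as aqueous suspension/emulsion plus 0.5% additive at 600 L/ha water, rates up to 1280 g/ha. Visual efficacy rated about 3 weeks later versus untreated controls (0% = like control, 100% = dead).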

[3] = system: Setaria viridis (SETVI); assay: B. Herbicidal post-emergence efficacy, SETVI
Outline: as §1

[4] = system: Kochia scoparia (KCHSC); assay: A. Herbicidal pre-emergence efficacy, KCHSC
Outline: (§2)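 Pre-emergence soil-surface spray in sandy loam pots, WP/EC in water plus 0.5% additive, 600 L/ha. Visual % damage rating after about 3 weeks in greenhouse vs. untreated; 0% = control-like, 100% = dead plants. Rates up to 1280 g/ha.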

[5] = system: Amaranthus retroflexus (AMARE); assay: A. Herbicidal pre-emergence efficacy, AMARE
Outline: as §2

[6] = system: Poa annua (POAAN); assay: B. Herbicidal post-emergence efficacy, POAAN
Outline: as §1

[7] = system: Setaria viridis (SETVI); assay: A. Herbicidal pre-emergence efficacy, SETVI
Outline: as §2

[8] = 80 g/ha, scored visually after about 3 weeks vs untreated controls
[9] = pre-emergence, dosage 1280 g/ha

Structure (SMILES)	Post-emergence efficacy against ECHCG in % ([1]; application rate 320 g/ha) [%]	Post-emergence efficacy against KCHSC in % ([2]; 80 g/ha) [%]	Post-emergence efficacy against KCHSC in % ([2]; 320 g/ha) [%]	Post-emergence efficacy against KCHSC [2] [%]	Post-emergence efficacy against SETVI ([3]; 320 g/ha) [%]	Post-emergence efficacy against SETVI ([3]; 1280 g/ha) [%]	Pre-emergence efficacy against KCHSC [4, 8] [%]	Pre-emergence efficacy against KCHSC ([4]; pre-emergence, dosage 320 g/ha) [%]	Pre-emergence efficacy against KCHSC [4, 9] [%]	Pre-emergence efficacy against AMARE in % ([5]; 80 g/ha) [%]	Pre-emergence efficacy against AMARE in % ([5]; 320 g/ha) [%]	Pre-emergence efficacy against AMARE in % ([5]; 1280 g/ha) [%]	Post-emergence efficacy against POAAN ([6]; 80 g/ha) [%]	Post-emergence efficacy against POAAN ([6]; 320 g/ha) [%]	Post-emergence efficacy against POAAN ([6]; 1280 g/ha) [%]	Pre-emergence efficacy against SETVI ([7]; dosage 80 g/ha) [%]	Pre-emergence efficacy against SETVI ([7]; dosage 320 g/ha) [%]	Pre-emergence efficacy against SETVI ([7]; dosage 1280 g/ha) [%]	Post-emergence efficacy against ECHCG in % ([1]; application rate 80 g/ha) [%]
O=S(=O)(CCCCl)Oc1ccccc1Oc1ncc(Cl)cn1 [Example I-2]	100	100	100	100	100	100	100	100	100	100	100	100	90	100	100	100	100	100	
O=S(=O)(CCl)Oc1ccccc1Oc1ncc(Cl)cn1 [Example I-9]				90		90	90	100	100	100	100	100			90		100	100	
O=S(=O)(CCCCl)Oc1cccc(F)c1Oc1ncc(Cl)cn1 [Example I-13]			90	100					100			100			100			100	
CCS(=O)(=O)Oc1ccccc1Oc1ncc(Cl)cn1 [Example I-16]		90	100	100		90	100	100	100	100	100	100			100		100	100	
Cc1cccc(Oc2ncc(Cl)cn2)c1OS(=O)(=O)CCCC(F)(F)F [Example I-28, 2-[(5-Chloropyrimidin-2-yl)oxy]-6-methylphenyl 4,4,4-trifluorobutane-1-sulfonate]			90	100	90	90		90	90	100	100	100		90	100	100	100	100	
Cc1cccc(Oc2ncc(Cl)cn2)c1OS(=O)(=O)CCC(F)(F)F [Example I-29]			100	100	100	100		90	100	90	100	100		90	100		100	100	
O=S(=O)(CCCC(F)(F)F)Oc1c(Br)cccc1Oc1ncc(Cl)cn1 [Example I-30]		100	100	100				100	100	100	100	100		90	100	90	100	100	
O=S(=O)(CCC(F)(F)F)Oc1c(Br)cccc1Oc1ncc(Cl)cn1 [Example I-31]		90	100	100		90	90	100	100	100	100	100		90	100		100	100	
C=CCS(=O)(=O)Oc1ccccc1Oc1ncc(Cl)cn1 [Example I-36]				90		90		90	100		100	100			90			100	
O=S(=O)(CCCC(F)(F)F)Oc1c(F)cccc1Oc1ncc(F)cn1 [Example I-42]	100	90	100	100			100	100	100	100	100	100				100	100	100	100
O=S(=O)(CCC(F)(F)F)Oc1c(Br)cccc1Oc1ncc(F)cn1 [Example I-43]		90	90	100					100	100	100	100					100	100	
Cc1cccc(Oc2ncc(F)cn2)c1OS(=O)(=O)CCC(F)(F)F [Example I-45]			90	100				100	100	90	100	100				90	100	100	
Cc1cccc(Oc2ncc(F)cn2)c1OS(=O)(=O)CCCC(F)(F)F [Example I-46]	100			100					90	100	100	100				90	100	100	
O=S(=O)(CCC(F)(F)F)Oc1c(F)cccc1Oc1ncc(F)cn1 [Example I-47]	100	100	100	100			100	100	100	100	100	100				100	100	100	
COCCS(=O)(=O)Oc1c(F)cccc1Oc1ncc(Cl)cn1 [Example I-52]	100					90		90	100	90	100	100		90	90		100	100	
O=S(=O)(CCC(F)=C(F)F)Oc1c(F)cccc1Oc1ncc(Cl)cn1 [Example I-70]	100																		80
O=S(=O)(CCC(F)=C(F)F)Oc1c(Cl)cccc1Oc1ncc(Cl)cn1 [Example I-73]		90	100	100		90		90	90	90	100	100			100		90	100	
N#Cc1cccc(Oc2ncc(Cl)cn2)c1OS(=O)(=O)CCCC(F)(F)F [Example I-81]	80																		80
